Patent US10131645B2, “Benzofurans substituted with primary benzamide as HCV inhibitors” (BRISTOL-MYERS SQUIBB COMPANY, priority 2015, dated 2018)

Tested on: HCV
Experiment: not given
Settings: extended dosing of the combination regimens; cited from earlier work

In the case of `CNC(=O)c1c(-c2ccc(F)cc2)oc2cc(N(CCO)S(C)(=O)=O)c(C3CC3)cc12` [HCV-796], the hepatic toxicity is given as “hepatic toxicity observed”.

Same assay, conditions: patients; single agent transient, more robust with interferon and ribavirin; cited from earlier work

In the case of `CNC(=O)c1c(-c2ccc(F)cc2)oc2cc(N(CCO)S(C)(=O)=O)c(C3CC3)cc12` [HCV-796], the “HCV RNA levels in patients” value is given as “reduce HCV RNA levels”.

Tested on: genotype 1b (Con-1) HCV replicon
Experiment: HCV Replicon Luciferase Assay
Assay type: cell-based
Settings: Hepatitis C virus, 72 h; Huh-7 cells, genotype 1b replicon, Renilla luciferase, 3 days incubation; read-out: EC50 1b (class)
Description: The cell lines used to evaluate compounds consist of a human hepatocyte derived cell line (Huh-7) that constitutively expresses a genotype 1b (Con-1) HCV replicon or a genotype 1b (Con-1) HCV replicon with an asparagine replacing the cysteine at amino acid 316, or a genotype 2a (JFH-1) replicon, containing a Renilla luciferase reporter gene. These cells were maintained in Dulbecco's modified Eagle medium (DMEM) containing 10% FBS, 100 U/mL penicillin/streptomycin and 1.0 mg/mL G418.
To evaluate compound efficacy, titrated compounds were transferred to sterile 384-well tissue culture treated plates, and the plates were seeded with HCV replicon cells (50 μL at a density of 2.4×10^3 cells/well) in DMEM containing 4% FBS (final DMSO concentration at 0.5%). After 3 days incubation at 37° C., cells were analyzed for Renilla Luciferase activity using the EnduRen substrate (Promega cat #E6485) according to the manufacturer's directions. Briefly, the EnduRen substrate was diluted in DMEM and then added to the plates to a final concentration of 7.5 μM. The plates were incubated for at least 1 h at 37° C. then read on a Viewlux Imager (PerkinElmer) using a luminescence program. The 50% effective concentration (EC50) was calculated using the four-parameter logistic formula noted above.

`CCNc1cc2oc(-c3ccc(F)cc3)c(C(=O)NC)c2cc1-c1cccc(C(=O)NCC(F)(F)c2ccccn2)c1` [Compound 1002] and `CCNc1cc2oc(-c3ccc(F)cc3)c(C(=O)NC)c2cc1-c1cccc(C(=O)NCC(C)(C)c2ccccc2)c1` [Compound 1003] cannot be ordered by EC50: under 0.1 µM for the first, under 0.1 µM for the second.

`CCNc1cc2oc(-c3ccc(F)cc3)c(C(=O)NC)c2cc1-c1cccc(C(=O)NCC(C)(C)c2ccc(Cl)cc2)c1` [Compound 1004] and `CCNc1cc2oc(-c3ccc(F)cc3)c(C(=O)NC)c2cc1-c1cccc(C(=O)NC[C@H](F)CO)c1` [Compound 1009] cannot be ordered by EC50: under 0.1 µM for the first, under 0.1 µM for the second.

First: CCNc1cc2oc(-c3ccc(F)cc3)c(C(=O)NC)c2cc1-c1cccc(C(=O)NC(C)(C(=O)OC)C(F)(F)F)c1 (centres unmarked) [Compound 1005]
Second: CCNc1cc2oc(-c3ccc(F)cc3)c(C(=O)NC)c2cc1-c1cccc(C(=O)NC(C(=O)OC)C(F)(F)F)c1 (centres unmarked) [Compound 1012]
The EC50 of the first is lower: under 0.1 µM for the first, 0.1 to 1 µM for the second. The first is the more potent here.

`CCNc1cc2oc(-c3ccc(F)cc3)c(C(=O)NC)c2cc1-c1cccc(C(=O)NC(C#N)C(=O)NC)c1` (centres unmarked) [Compound 1007] and `CCNc1cc2oc(-c3ccc(F)cc3)c(C(=O)NC)c2cc1-c1cccc(C(=O)NC(C#N)C(N)=O)c1` (centres unmarked) [Compound 1008] cannot be ordered by EC50: under 0.1 µM for the first, under 0.1 µM for the second.

`CCNc1cc2oc(-c3ccc(F)cc3)c(C(=O)NC)c2cc1-c1cccc(C(=O)NC(C)(C#N)C2CC2)c1` (centres unmarked) [Compound 1010] and `CNC(=O)c1c(-c2ccc(F)cc2)oc2cc(N(CC3CC3)S(C)(=O)=O)c(-c3cccc(C(=O)NC(C)(C#N)C4CC4)c3)cc12` (centres unmarked) [Compound 3001] cannot be ordered by EC50: under 0.1 µM for the first, under 0.1 µM for the second.

`CCN(c1cc2oc(-c3ccc(F)cc3)c(C(=O)NC)c2cc1-c1cccc(C(=O)NC(c2ccccc2)C(F)(F)F)c1)S(C)(=O)=O` (centres unmarked) [Compound 2001] and `CCN(c1cc2oc(-c3ccc(F)cc3)c(C(=O)NC)c2cc1-c1cccc(C(=O)NC(c2ccccn2)C(F)(F)F)c1)S(C)(=O)=O` (centres unmarked) [Compound 2002] cannot be ordered by EC50: under 0.1 µM for the first, under 0.1 µM for the second.

First: CCN(c1cc2oc(-c3ccc(F)cc3)c(C(=O)NC)c2cc1-c1cccc(C(=O)NC(C2CC2)C(F)(F)F)c1)S(C)(=O)=O (centres unmarked) [Compound 2003]
Second: CCN(c1cc2oc(-c3ccc(F)cc3)c(C(=O)NC)c2cc1-c1cccc(C(=O)NC(C(=O)OC)C(F)(F)F)c1)S(C)(=O)=O (centres unmarked) [Compound 2005]
The EC50 of the first is lower: under 0.1 µM for the first, 0.1 to 1 µM for the second. The first is the more potent here.

First: CCN(c1cc2oc(-c3ccc(F)cc3)c(C(=O)NC)c2cc1-c1cccc(C(=O)NC(C#N)c2ccccc2)c1)S(C)(=O)=O (centres unmarked) [Compound 2006]
Second: CCN(c1cc2oc(-c3ccc(F)cc3)c(C(=O)NC)c2cc1-c1cccc(C(=O)NC(C(N)=O)c2ccccc2)c1)S(C)(=O)=O (centres unmarked) [Compound 2007]
The EC50 of the first is lower: under 0.1 µM for the first, 0.1 to 1 µM for the second. The first is the more potent here.

`CCOc1cc(C(C#N)NC(=O)c2cccc(-c3cc4c(C(=O)NC)c(-c5ccc(F)cc5)oc4cc3N(CC)S(C)(=O)=O)c2)ccc1OC(C)C` (centres unmarked) [Compound 2008] and `CNC(=O)c1c(-c2ccc(F)cc2)oc2cc(N(CCF)S(C)(=O)=O)c(-c3cccc(C(=O)N[C@H](COC)C4CC4)c3)cc12` [Compound 4001] cannot be ordered by EC50: under 0.1 µM for the first, under 0.1 µM for the second.

`CNC(=O)c1c(-c2ccc(F)cc2)oc2cc(N(CCF)S(C)(=O)=O)c(-c3cccc(C(=O)N[C@@H](COC)C4CC4)c3)cc12` [Compound 4002] and `CNC(=O)c1c(-c2ccc(F)cc2)oc2cc(N(CCF)S(C)(=O)=O)c(-c3cccc(C(=O)N[C@@H](CO)C4CC4)c3)cc12` [Compound 4003] cannot be ordered by EC50: under 0.1 µM for the first, under 0.1 µM for the second.

`CNC(=O)c1c(-c2ccc(F)cc2)oc2cc(N(CCCF)S(C)(=O)=O)c(-c3cccc(C(=O)NC(c4ccccn4)C(F)(F)F)c3)cc12` (centres unmarked) [Compound 5002] and `CNC(=O)c1c(-c2ccc(F)cc2)oc2cc(N(CCCF)S(C)(=O)=O)c(-c3cccc(C(=O)NC(C)(C#N)C4CC4)c3)cc12` (centres unmarked) [Compound 5003] cannot be ordered by EC50: under 0.1 µM for the first, under 0.1 µM for the second.

First: CCN(CC)c1cc2oc(-c3ccc(F)cc3)c(C(=O)NC)c2cc1-c1cccc(C(=O)NC(C(N)=O)c2ccccc2)c1 (centres unmarked) [Compound 6001]
Second: CCN(CC)c1cc2oc(-c3ccc(F)cc3)c(C(=O)NC)c2cc1-c1cccc(C(=O)N[C@@H](CO)C(N)=O)c1 [Compound 6002]
The EC50 of the first is lower: under 0.1 µM for the first, 0.1 to 1 µM for the second. The first is the more potent here.

`CCN(CC)c1cc2oc(-c3ccc(F)cc3)c(C(=O)NC)c2cc1-c1cccc(C(=O)NCC(C(=O)O)C(F)(F)F)c1` (centres unmarked) [Compound 6005] and `CCN(C(=O)C(F)(F)F)c1cc2oc(-c3ccc(F)cc3)c(C(=O)NC)c2cc1-c1cccc(C(=O)NC(C(=O)OC)C(F)(F)F)c1` (centres unmarked) [Compound 7001] fall in the same range of EC50: 0.1 to 1 µM for the first, 0.1 to 1 µM for the second.

Same assay, conditions: Hepatitis C virus, 72 h; Huh-7 cells, genotype 1b replicon, Renilla luciferase, 3 days incubation; read-out: EC50 (uM) 1b

First: CCNc1cc2oc(-c3ccc(F)cc3)c(C(=O)NC)c2cc1-c1cccc(C(=O)NCC(F)(F)c2ccccc2)c1 [Compound 1001]
Second: CCNc1cc2oc(-c3ccc(F)cc3)c(C(=O)NC)c2cc1-c1cccc(C(=O)NC(C#N)c2ccccc2)c1 (centres unmarked) [Compound 1006]
The EC50 of the first is 3-fold higher: 0.0486 µM for the first, 0.0162 µM for the second.

First: CCNc1cc2oc(-c3ccc(F)cc3)c(C(=O)NC)c2cc1-c1cccc(C(=O)NC(C2CC2)C(F)(F)F)c1 (centres unmarked) [Compound 1011]
Second: CNC(=O)c1c(-c2ccc(F)cc2)oc2cc(N(CCCF)S(C)(=O)=O)c(-c3cccc(C(=O)NC(C4CC4)C(F)(F)F)c3)cc12 (centres unmarked) [Compound 5001]
The EC50 of the first is 1.8-fold lower: 0.0128 µM for the first, 0.0229 µM for the second.

Compared with `CCN(c1cc2oc(-c3ccc(F)cc3)c(C(=O)NC)c2cc1-c1cccc(C(=O)NC(c2cccnc2)C(F)(F)F)c1)S(C)(=O)=O` (centres unmarked) [Compound 2004], `CCN(c1cc2oc(-c3ccc(F)cc3)c(C(=O)NC)c2cc1-c1cccc(C(=O)NC(C)(C#N)C2CC2)c1)S(C)(=O)=O` (centres unmarked) [Compound 2009] is 3-fold lower in EC50: 0.0096 µM for the first, 0.0032 µM for the second.

Work on `CCN(CC)c1cc2oc(-c3ccc(F)cc3)c(C(=O)NC)c2cc1-c1cccc(C(=O)N[C@]2(C(=O)O)C[C@@H]2CO)c1` [Compound 6004] yielded an EC50 of 0.946 µM.
